Among the data in patent US10155750B2, “Amidoethyl azole orexin receptor antagonists” (Merck Sharp & Dohme Corp., priority 2014, dated 2018) are IC50 values, retold here.

For test [1], the target named is human orexin-2 receptor (Homo sapiens (Human), UniProt O43614). Nature of the test: FLIPR Ca2+ flux assay, hOX2R. The test is classed as cell-based. As to conditions: CHO cells expressing the receptor; agonist 70 pM Ala-6,12 human orexin-A. The method, then: The utility of the compounds in accordance with the present invention as orexin receptor OX1R and/or OX2R antagonists may be readily determined without undue experimentation by methodology well known in the art, including the “FLIPR Ca^2+ Flux Assay” (Okumura et al., Biochem. Biophys. Res. Comm. 280:976-981, 2001). In a typical experiment the OX1 and OX2 receptor antagonistic activity of the compounds of the present invention was determined in accordance with the following experimental method. For intracellular calcium measurements, Chinese hamster ovary (CHO) cells expressing the rat orexin-1 receptor or the human orexin-2 receptor, are grown in Iscove's modified DMEM containing 2 mM L-glutamine, […], 1% hypoxanthine-thymidine supplement, 100 U/ml penicillin, 100 μg/ml streptomycin and 10% heat-inactivated fetal calf serum (FCS). The cells are seeded at 20,000 cells/well into Becton-Dickinson black 384-well clear bottom sterile plates coated with poly-D-lysine. All reagents were from GIBCO-Invitrogen Corp. The seeded plates are incubated overnight at 37° C. and 5% CO2. Ala-6,12 human orexin-A as the agonist is prepared as a 1 mM stock solution in 1% bovine serum albumin (BSA) and diluted in assay buffer (HBSS containing 20 mM HEPES, 0.1% BSA and 2.5 mM probenecid, pH7.4) for use in the assay at a final concentration of 70 pM. Test compounds are prepared as 10 mM stock solution in DMSO, then diluted in 384-well plates, first in DMSO, then assay buffer. On the day of the assay, cells are washed 3 times with 100 μl assay buffer and then incubated for 60 min (37° C., 5% CO2) in 60 μl assay buffer containing 1 μM Fluo-4AM ester, 0.02% pluronic acid, and 1% BSA. The dye loading solution is then aspirated and cells are washed 3 times with 100 μl assay buffer. 30 μl of that same buffer is left in each well. Within the Fluorescent Imaging Plate Reader (FLIPR, Molecular Devices), test compounds are added to the plate in a volume of 25 μl, incubated for 5 min and finally 25 μl of agonist is added. Fluorescence is measured for each well at 1 second intervals for 5 minutes and the height of each fluorescence peak is compared to the height of the fluorescence peak induced by 70 pM Ala-6,12 orexin-A with buffer in place of antagonist. For each antagonist, IC50 value (the concentration of compound needed to inhibit 50% of the agonist response) is determined. Alternatively, compound potency can be assessed by a radioligand binding assay (described in Bergman et. al. Bioorg. Med. Chem. Lett. 2008, 18, 1425-1430) in which the inhibition constant (Ki) is determined in membranes prepared from CHO cells expressing either the OX1 or OX2 receptor. The intrinsic orexin receptor antagonist activity of a compound which may be used in the present invention may be determined by these assays.
human orexin-2 receptor, sequence (O43614 whole entry): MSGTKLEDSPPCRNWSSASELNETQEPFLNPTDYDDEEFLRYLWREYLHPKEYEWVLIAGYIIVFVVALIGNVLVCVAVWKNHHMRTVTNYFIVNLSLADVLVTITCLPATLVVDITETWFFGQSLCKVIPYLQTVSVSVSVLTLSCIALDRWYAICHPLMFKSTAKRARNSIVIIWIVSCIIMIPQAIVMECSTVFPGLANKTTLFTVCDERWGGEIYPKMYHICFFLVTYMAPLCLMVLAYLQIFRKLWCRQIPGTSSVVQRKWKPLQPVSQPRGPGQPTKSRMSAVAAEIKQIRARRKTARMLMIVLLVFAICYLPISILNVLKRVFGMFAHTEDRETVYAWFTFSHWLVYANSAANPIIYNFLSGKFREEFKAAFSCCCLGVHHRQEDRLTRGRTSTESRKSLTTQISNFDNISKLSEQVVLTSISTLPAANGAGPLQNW

Test [2] has as its target hOX1R (orexin-1 receptor) (Homo sapiens, UniProt O43613). In words: FLIPR Ca2+ flux assay, hOX1R. The test is classed as cell-based. Conditions: CHO cells expressing the receptor; agonist 70 pM Ala-6,12 human orexin-A.

The IC50 is the point on the concentration scale where inhibition reaches its midpoint. The low end stands for greater potency in that assay, the high end for weaker potency in that assay.

`CCN(CCn1ncc(C(C)(C)O)n1)C(=O)c1ccccc1-n1nccn1` [Example 1, N-Ethyl-N-(2-(4-(2-hydroxypropan-2-yl)-2H-1,2,3-triazol-2-yl)ethyl)-2-(2H-1,2,3-triazol-2-yl)benzamide]: the IC50 is 0.058 µM in test [1] and greater than 10 µM in test [2].

As for `CCN(CCn1ncc(C(C)(O)CC)n1)C(=O)c1ccccc1-n1nccn1` (stereo not shown) [Example 2, N-Ethyl-N-(2-(4-(2-hydroxybutan-2-yl)-2H-1,2,3-triazol-2-yl)ethyl)-2-(2H-1,2,3-triazol-2-yl)benzamide], the IC50 in test [1] is 0.065 µM; in test [2] it was greater than 10 µM.

As for `CCN(CCn1ncc(C(C)O)n1)C(=O)c1ccccc1-n1nccn1` (stereo not shown) [Example 3, N-Ethyl-N-(2-(4-(1-hydroxyethyl)-2H-1,2,3-triazol-2-yl)ethyl)-2-(2H-1,2,3-triazol-2-yl)benzamide], the results for the IC50 in test [1] and in test [2] were 0.373 µM and greater than 10 µM, respectively.

As for `CCN(CCn1ncc(C(C)(C)O)n1)C(=O)c1ccccc1C1CC1` [Example 4, 2-Cyclopropyl-N-ethyl-N-(2-(4-(2-hydroxypropan-2-yl)-2H-1,2,3-triazol-2-yl)ethyl)benzamide], the IC50 in test [1] was 0.047 µM; in test [2], greater than 10 µM.

As for `CCN(CCn1ncc(C(C)(C)O)n1)C(=O)c1ccccc1N1CCCC1` [Example 5, N-ethyl-N-(2-(4-(2-hydroxypropan-2-yl)-2H-1,2,3-triazol-2-yl)ethyl)-2-(pyrrolidin-1-yl)benzamide], the half-inhibitory concentration (IC50) was 0.041 µM in test [1] and greater than 10 µM in test [2].

For the compound `CCN(CCn1ncc(C(C)(C)O)n1)C(=O)c1ccccc1SC(F)(F)F` [Example 11, N-ethyl-N-(2-(4-(2-hydroxypropan-2-yl)-2H-1,2,3-triazol-2-yl)ethyl)-2-((trifluoromethyl)thio)benzamide], the IC50 in test [1] was 0.034 µM; in test [2], greater than 10 µM.

For the compound `CCN(CCn1ncc(C(C)(C)O)n1)C(=O)c1ccccc1OC(F)(F)F` [Example 12, N-ethyl-N-(2-(4-(2-hydroxypropan-2-yl)-2H-1,2,3-triazol-2-yl)ethyl)-2-(trifluoromethoxy)benzamide], the IC50 in test [1] was 0.247 µM; in test [2] it was greater than 10 µM.

For `CCN(CCn1ncc(C(C)(C)O)n1)C(=O)c1ccccc1OC(C)C` [Example 18, N-ethyl-N-(2-(4-(2-hydroxypropan-2-yl)-2H-1,2,3-triazol-2-yl)ethyl)-2-isopropoxybenzamide], the concentration for half-maximal inhibition (IC50) in test [1] is 0.145 µM; in test [2], greater than 10 µM.

Take `CCN(CCn1nc(C)c(C(C)(C)O)n1)C(=O)c1ccccc1-n1nccn1` [Example 20, N-Ethyl-N-(2-(4-(2-hydroxypropan-2-yl)-5-methyl-2H-1,2,3-triazol-2-yl)ethyl)-2-(2H-1,2,3-triazol-2-yl)benzamide]: the figures for the IC50 in test [1] and in test [2] were 0.012 µM and 2.86 µM, respectively.

With `CCN(CCn1nc(C)c(C(C)(C)O)n1)C(=O)c1cccnc1OCC(F)(F)F` [Example 21, N-Ethyl-N-(2-(4-(2-hydroxypropan-2-yl)-5-methyl-2H-1,2,3-triazol-2-yl)ethyl)-2-(2,2,2-trifluoroethoxy)nicotinamide], the IC50 is 0.021 µM in test [1] and greater than 10 µM in test [2].

Take `CCN(CCn1nc(C)c(C(C)(C)O)n1)C(=O)c1cccnc1OC(C)C` [Example 22, N-ethyl-N-(2-(4-(2-hydroxypropan-2-yl)-5-methyl-2H-1,2,3-triazol-2-yl)ethyl)-2-isopropoxynicotinamide]: the IC50 in test [1] was 0.061 µM; in test [2], greater than 10 µM.

On to `CCOc1ncccc1C(=O)N(CC)CCn1nc(C)c(C(C)(C)O)n1` [Example 23, 2-ethoxy-N-ethyl-N-(2-(4-(2-hydroxypropan-2-yl)-5-methyl-2H-1,2,3-triazol-2-yl)ethyl)nicotinamide], for which the figures for the IC50 in test [1] and in test [2] were 0.058 µM and greater than 10 µM, respectively.

Turning to `CCN(CCn1nc(C)c(C(C)(C)O)n1)C(=O)c1cccnc1OCC(F)F` [Example 24, 2-(2,2-difluoroethoxy)-N-ethyl-N-(2-(4-(2-hydroxypropan-2-yl)-5-methyl-2H-1,2,3-triazol-2-yl)ethyl)nicotinamide], the figures for the IC50 in test [1] and in test [2] were 0.044 µM and greater than 10 µM, respectively.

As to `CCN(CCn1nc(C)c(C(C)(C)O)n1)C(=O)c1ccccc1OC(F)F` [Example 25, 2-(difluoromethoxy)-N-ethyl-N-(2-(4-(2-hydroxypropan-2-yl)-5-methyl-2H-1,2,3-triazol-2-yl)ethyl)benzamide], the figures for the IC50 in test [1] and in test [2] were 0.035 µM and greater than 10 µM, respectively.

With `CCN(CCn1nc(C)c(C(C)(C)O)n1)C(=O)c1ccccc1OC(F)(F)F` [Example 26], the values for the IC50 in test [1] and in test [2] were 0.019 µM and greater than 10 µM, respectively.

For `CCOc1ccccc1C(=O)N(CC)CCn1nc(C)c(C(C)(C)O)n1` [Example 27, 2-ethoxy-N-ethyl-N-(2-(4-(2-hydroxypropan-2-yl)-5-methyl-2H-1,2,3-triazol-2-yl)ethyl)benzamide], the concentration for half-maximal inhibition (IC50) in test [1] was 0.027 µM; in test [2], greater than 10 µM.

`CCN(CCn1nc(C)c(C(C)(C)O)n1)C(=O)c1ccccc1C1CC1` [Example 28, 2-cyclopropyl-N-ethyl-N-(2-(4-(2-hydroxypropan-2-yl)-5-methyl-2H-1,2,3-triazol-2-yl)ethyl)benzamide]: the IC50 in test [1] was determined as 0.013 µM; in test [2], 1.56 µM.

For the compound `CCN(CCn1nc(C)c(C(C)(C)O)n1)C(=O)c1ccccc1-n1cccn1` [Example 29, N-ethyl-N-(2-(4-(2-hydroxypropan-2-yl)-5-methyl-2H-1,2,3-triazol-2-yl)ethyl)-2-(1H-pyrazol-1-yl)benzamide], the IC50 in test [1] is 0.028 µM; in test [2] it was greater than 10 µM.

In the case of `CCN(CCn1nc(C)c(C(C)(C)O)n1)C(=O)c1ccc(F)cc1-n1nccn1` [Example 30, N-ethyl-4-fluoro-N-(2-(4-(2-hydroxypropan-2-yl)-5-methyl-2H-1,2,3-triazol-2-yl)ethyl)-2-(2H-1,2,3-triazol-2-yl)benzamide], the IC50 in test [1] was 0.01 µM; in test [2] it was 5.54 µM.

As for `CCN(CCn1nc(C)c(C(C)(C)O)n1)C(=O)c1cccnc1-c1ccccc1` [Example 31, N-ethyl-N-(2-(4-(2-hydroxypropan-2-yl)-5-methyl-2H-1,2,3-triazol-2-yl)ethyl)-2-phenylnicotinamide], the results for the IC50 in test [1] and in test [2] were 0.033 µM and greater than 10 µM, respectively.

`CCCc1ccccc1C(=O)N(CC)CCn1nc(C)c(C(C)(C)O)n1` [Example 32, N-ethyl-N-(2-(4-(2-hydroxypropan-2-yl)-5-methyl-2H-1,2,3-triazol-2-yl)ethyl)-2-propylbenzamide]: the IC50 in test [1] is 0.032 µM; in test [2], 2.21 µM.

As for `CCN(CCn1nc(C)c(C(C)(C)O)n1)C(=O)c1ccccc1OCC(F)(F)F` [Example 33, N-ethyl-N-(2-(4-(2-hydroxypropan-2-yl)-5-methyl-2H-1,2,3-triazol-2-yl)ethyl)-2-(2,2,2-trifluoroethoxy) benzamide], the IC50 in test [1] was 0.052 µM; in test [2] it was greater than 10 µM.

In the case of `CCN(CCn1nc(C)c(C(C)(C)O)n1)C(=O)c1ccccc1CC(F)(F)F` [Example 34, N-ethyl-N-(2-(4-(2-hydroxypropan-2-yl)-5-methyl-2H-1,2,3-triazol-2-yl)ethyl)-2-(2,2,2-trifluoroethyl) benzamide], the IC50 is 0.037 µM in test [1] and greater than 10 µM in test [2].

Take `CCN(CCn1nc(C)c(C(C)(C)O)n1)C(=O)c1ccccc1OCC(F)F` [Example 35, 2-(2,2-difluoroethoxy)-N-ethyl-N-(2-(4-(2-hydroxypropan-2-yl)-5-methyl-2H-1,2,3-triazol-2-yl)ethyl)benzamide]: the IC50 in test [1] was 0.035 µM; in test [2], greater than 10 µM.

With `CCN(CCn1nc(C)c(C(C)(C)O)n1)C(=O)c1cccnc1CC(F)(F)F` [Example 36, N-ethyl-N-(2-(4-(2-hydroxypropan-2-yl)-5-methyl-2H-1,2,3-triazol-2-yl)ethyl)-2-(2,2,2-trifluoroethyl) nicotinamide], the IC50 in test [1] is 0.27 µM; in test [2], greater than 10 µM.

Take `CCN(CCn1nc(C)c(C(C)(C)O)n1)C(=O)c1ccccc1CC(F)F` [Example 37, 2-(2,2-difluoroethyl)-N-ethyl-N-(2-(4-(2-hydroxypropan-2-yl)-5-methyl-2H-1,2,3-triazol-2-yl)ethyl)benzamide]: the IC50 in test [1] is 0.01 µM; in test [2] it was greater than 10 µM.
